pIC50: −log10 of the molar value. Read-outs that look alike come from different tables or passages of the source.
How the values were obtained:
HT29 = assay: Cytotoxicity assay (propidium iodide), HT29; assay type: cell-based; details: HT29 (C4a, colon); 48 hours
Experimental: (§1) Cells from cell lines as mentioned in the table given below were seeded at a density of 3000 cells/well in a white opaque 96-well plate. Following incubation at 37° C./5% CO2 for a period of 18-24 hours, the cells were treated with various concentrations (stock solution was prepared in DMSO and subsequent dilutions were made in media as per ATCC guidelines) of the representative compounds of present invention (refer table 3) for a period of 48 hours. At the end of treatment, the spent culture medium was discarded, the cells were washed with 1×PBS and 200 μl of 7 μg/ml propidium iodide was added to each well. The plates were frozen at −70° C. for at least 24 hours. For analysis, the plates were brought to RT, allowed to thaw and were read in PolarStar fluorimeter with the fluorescence setting. The percentage of viable cells in the non treated set of wells was considered to be 100 and the percentage viability following treatment was calculated accordingly. IC50 values were calculated from graphs plotted using these percentages.

A549 = assay: Cytotoxicity assay (propidium iodide), A549; assay type: cell-based; details: A549 (C1a, lung), 48 hours
STAT3 = STAT3 bioassay (Hela Stat3-luc, luciferase); assay type: cell-based; details: Oncostatin M induction
Procedure, shortened: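 Hela Stat3-luc cells (20,000/well, 24 h) pretreated with compound 1 h, then induced with 100 ng/ml final Oncostatin M for 7-8 h at 37 °C. Luciferase luminescence after lysis; percent inhibition versus induction control, IC50 from these percentages.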

MDA MB 231 = assay: Cytotoxicity assay (propidium iodide), MDA MB 231; assay type: cell-based; details: MDA MB 231 (C6a, breast); 48 hours
Experimental: as §1

H460 = assay: Cytotoxicity assay (propidium iodide), H460; assay type: cell-based; details: H460 (C1b, lung), 48 hours
IL-6 = assay: Human monocyte assay, LPS-stimulated IL-6; assay type: cell-based; details: human monocytes, 1 μg/ml LPS, 5 hours
Procedure, shortened: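 Adherent human PBMC-derived monocytes (2×10^4/well) were cultured 48 h, preincubated 30 min with compound or 0.5% DMSO, then stimulated with 1 μg/ml E. coli LPS for 5 h at 37° C. TNF-α and IL-6 in supernatants were measured by ELISA.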

PC3 [1] = system: PC3
Experimental: as §1

A2780 = assay: Cytotoxicity assay (propidium iodide), A2780; assay type: cell-based; details: A2780 (C3a, ovarian), 48 hours
Experimental: as §1

U 373 = assay: Cytotoxicity assay (propidium iodide), U 373; assay type: cell-based; details: Homo sapiens, U373 MG; U 373 (C8a, glioblastoma); 48 hours
Experimental: as §1

mTOR = target: T1, mTOR (Homo sapiens, UniProt P42345); assay: mTOR activity assay (cell ELISA, Phospho-AKT Ser 473, A2780 cells); assay type: cell-based; details: 1 μM, read-out: % Inhibition of mTOR activity at 1 μM
T1 construct: endogenous in cells; host or cells: A2780 ovarian cell line (ATCC)
Experimental: Seed cells (Ovarian cell line A2780, ATCC) were plated in a 96 well microtitre plate at a density of 50,000 cells/cm^2 in appropriate complete cell culture medium. The cells were allowed to adhere for 18-24 hours. The cells were allowed to starve for 24 hours. […] Then the cells were stimulated with 20% FCS for 30 minutes. A typical assay would consist of a set of unstimulated cells, a set of stimulated cells and a set of cells treated with compounds of present invention and a set of cells treated with the stimulator. The medium was discarded. The cells were fixed with 100 μL of 3.7% formaldehyde for 15 minutes. The formaldehyde was discarded by inverting the plate and tapping it on a thick tissue paper layer to remove traces. The cells were washed and permeabilized with 200 μL PBS+Triton-X 100 solution (hereafter referred to as PBS-Triton, containing 0.1% triton-X 100 in 1×PBS) three times, incubating the cells each time for 5 minutes. 100 μL blocking solution (10% FCS in PBS-Triton) was added and incubated for 1 hour at 25° C. The blocking solution was discarded and cells were incubated with the primary antibody in PBS-Triton at a dilution of 1:500 for 1 hour at RT (25° C.). [The primary antibody is Phospho-AKT (Ser 473); Cell Signaling; Cat. No. 9271]. The primary antibody solution was discarded and the cells were washed 3 times with PBS-Triton solution and incubated with the HRP-conjugated secondary antibody in PBS-Triton at a dilution of 1:500 for 1 hour at RT (25° C.). The cells were washed 3 times with PBS-Triton followed by two washes with PBS (to remove traces of triton-X 100). The OPD (o-phenylene diamine dihydrochloride) substrate was prepared for detection of the signal by dissolving one tablet set (two tablets) of SigmaFast OPD (Sigma, Cat No. P9187) in 20 mL distilled water. It should be protected from light. 100 μL OPD solutions was added to the wells and the plate was incubated in the dark for 3-5 minutes (depending upon the development of the color). The reaction was stopped by adding 50 μL 2 N H2SO4. The absorbance was measured at 490 nm. The values were expressed in the treated samples, in terms of percentage or fold decrease in AKT phosphorylation with respect to the induced sample. PI-103 (Calbiochem, USA) was used as a standard.

HCT116 = assay: Cytotoxicity assay (propidium iodide), HCT116; assay type: cell-based; details: Homo sapiens, HCT-116; HCT116 (C4b, colon); 48 hours
Experimental: as §1

U 87 MG = assay: Cytotoxicity assay (propidium iodide), U 87 MG; assay type: cell-based; details: Homo sapiens; U 87 MG (C8b, glioblastoma); 48 hours
Experimental: as §1

PI3Kα kinase = target: T2, PI3Kα kinase (Homo sapiens, UniProt P42336); assay: Kinase assay (PI3Kα); assay type: biochemical; details: read-out: IC50 (μM) for PI3K inhibition
T2 construct: purchased Millipore, USA
Procedure, shortened: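 Recombinant PI3Kα (20 ng) phosphorylated 12.5 μg phosphatidylinositol with 10 μM ATP and 1 μCi ^32γ P […] in 10 mM Hepes pH 7.5, 50 mM MgCl2 for 20 min at 30° C. Lipids were extracted with MeOH/CHCl3, resolved by TLC, and labelled PI quantified by autoradiography densitometry; PI-103 served as standard.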

PC3 [2] = assay: Cytotoxicity assay (propidium iodide), PC3; details: Homo sapiens, PC-3, 48 h, read-out: IC50 cytotoxicity
Experimental: as §1

T2 sequence (P42336 whole entry): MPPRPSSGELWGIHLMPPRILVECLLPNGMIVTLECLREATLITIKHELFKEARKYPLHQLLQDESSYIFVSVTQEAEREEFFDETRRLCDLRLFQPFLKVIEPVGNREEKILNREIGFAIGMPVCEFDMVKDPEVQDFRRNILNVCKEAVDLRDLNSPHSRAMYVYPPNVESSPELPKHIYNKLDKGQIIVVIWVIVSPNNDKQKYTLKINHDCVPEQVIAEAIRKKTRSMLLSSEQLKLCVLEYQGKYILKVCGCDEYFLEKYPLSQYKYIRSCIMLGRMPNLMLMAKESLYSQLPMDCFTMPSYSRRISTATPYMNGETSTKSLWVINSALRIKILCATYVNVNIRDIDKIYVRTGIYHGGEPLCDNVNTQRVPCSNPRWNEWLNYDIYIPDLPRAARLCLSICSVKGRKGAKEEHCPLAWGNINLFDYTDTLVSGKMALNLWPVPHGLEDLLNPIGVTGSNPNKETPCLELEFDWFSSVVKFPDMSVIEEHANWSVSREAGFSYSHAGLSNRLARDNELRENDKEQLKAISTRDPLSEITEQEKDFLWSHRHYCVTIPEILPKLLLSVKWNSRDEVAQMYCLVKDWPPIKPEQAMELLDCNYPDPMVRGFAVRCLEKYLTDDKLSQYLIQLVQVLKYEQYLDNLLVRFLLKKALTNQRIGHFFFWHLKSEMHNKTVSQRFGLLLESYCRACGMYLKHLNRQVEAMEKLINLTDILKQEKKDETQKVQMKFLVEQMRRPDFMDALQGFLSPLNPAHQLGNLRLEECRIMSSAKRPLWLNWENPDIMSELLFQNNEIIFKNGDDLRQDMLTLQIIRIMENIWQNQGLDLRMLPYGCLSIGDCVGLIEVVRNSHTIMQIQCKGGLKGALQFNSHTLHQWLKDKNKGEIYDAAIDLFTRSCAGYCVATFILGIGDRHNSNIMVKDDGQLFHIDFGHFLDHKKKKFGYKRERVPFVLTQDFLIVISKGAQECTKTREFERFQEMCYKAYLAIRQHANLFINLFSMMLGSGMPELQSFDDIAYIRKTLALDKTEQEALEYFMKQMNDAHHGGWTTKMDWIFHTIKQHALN
T2 sequence (P27986 whole entry partner): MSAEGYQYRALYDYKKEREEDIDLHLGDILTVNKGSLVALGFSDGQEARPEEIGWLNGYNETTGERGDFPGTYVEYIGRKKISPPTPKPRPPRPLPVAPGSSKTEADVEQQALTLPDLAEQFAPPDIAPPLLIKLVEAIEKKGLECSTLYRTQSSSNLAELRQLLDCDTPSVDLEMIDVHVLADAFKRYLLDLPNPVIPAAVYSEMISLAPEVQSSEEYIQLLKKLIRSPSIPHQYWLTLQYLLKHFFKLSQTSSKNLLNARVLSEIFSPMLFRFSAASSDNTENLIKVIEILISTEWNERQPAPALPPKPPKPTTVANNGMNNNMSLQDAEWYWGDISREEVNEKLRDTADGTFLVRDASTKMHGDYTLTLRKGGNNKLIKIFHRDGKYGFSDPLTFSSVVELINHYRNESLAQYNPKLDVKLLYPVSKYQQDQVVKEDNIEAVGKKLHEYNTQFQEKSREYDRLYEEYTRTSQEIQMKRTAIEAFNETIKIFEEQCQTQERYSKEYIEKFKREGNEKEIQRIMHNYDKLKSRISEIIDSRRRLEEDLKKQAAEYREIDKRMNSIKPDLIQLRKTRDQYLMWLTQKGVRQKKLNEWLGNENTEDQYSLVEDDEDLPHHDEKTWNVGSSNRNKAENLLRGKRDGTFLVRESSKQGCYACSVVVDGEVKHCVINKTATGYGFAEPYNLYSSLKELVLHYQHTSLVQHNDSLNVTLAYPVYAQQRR

Row | pIC50 (STAT3) | IC50 (IL-6) | pIC50 (PC3 [1]) | pIC50 (STAT3; Homo sapiens) | inhibition at 1 µM (mTOR) | IC50 (PI3Kα kinase) | SMILES | pIC50 (HT29) | pIC50 (A549) | pIC50 (MDA MB 231) | pIC50 (H460) | pIC50 (A2780) | pIC50 (A549; Homo sapiens) | pIC50 (U 373) | pIC50 (H460; Homo sapiens, NCI-H460) | pIC50 (HCT116) | pIC50 (U 87 MG) | pIC50 (PC3 [2]) | pIC50 (A2780; Homo sapiens)
1 | 5.00 to 5.30 | 0.001 to 5 µM | 5.30 to 8.00 | – | – | – | Cc1cccc(S(=O)(=O)N(C)N=Cc2cnc3ccc(-c4cccnc4)cn23)c1 [Example 2] | < 5.30 | 5.30 to 8.00 | 5.30 to 8.00 | 5.30 to 8.00 | 5.30 to 8.00 | – | – | – | – | – | – | –
2 | – | – | – | 5.30 to 7.00 | 30 to 50% | 0.01 to 0.5 µM | Cc1ccc(S(=O)(=O)N(C)N=Cc2cnc3ccc(-c4cccnc4)cn23)cc1F [Example 20, 3-Fluoro-N, 4-dimethyl-N′-((6-(pyridine-3-yl)imidazo[1,2-a]pyridine-3-yl)methylene) benzenesulfonohydrazide] | – | – | – | – | – | < 5.30 | < 5.30 | < 5.30 | < 5.30 | < 5.30 | < 5.30 | < 5.30
3 | – | – | – | < 5.00 | – | – | CN(N=Cc1cnc2ccc(-c3cccnc3)cn12)S(=O)(=O)c1ccc(F)c(C#N)c1 [Example 24, 3-Cyano-4-fluoro-N-methyl-N′-((6-(pyridine-3-yl)imidazo[1,2-a]pyridine-3-yl)methylene) benzenesulfonohydrazide] | – | – | – | – | – | 5.30 to 8.00 | 5.30 to 8.00 | 5.30 to 8.00 | < 5.30 | 5.30 to 8.00 | 5.30 to 8.00 | 5.30 to 8.00
4 | – | – | < 5.30 | – | – | – | Cc1ccc([N+](=O)[O-])cc1S(=O)(=O)N(C)N=Cc1cnc2ccc(-c3ccc(F)nc3)cn12 [Example 83, N′-((6-(6-fluoropyridine-3-yl)imidazo[1,2-a]pyridine-3-yl)methylene)-n, 2-dimethyl-5-nitrobenzenesulfonohydrazide] | < 5.30 | < 5.30 | 5.30 to 8.00 | < 5.30 | 5.30 to 8.00 | – | – | – | – | – | – | –
